Experimental data reported in patent US20260365692A1, “COMPOSITIONS COMPRISING PROTEINS DISSOLVED IN FLUORINATED SOLVENTS, AND METHODS OF MAKING AND USING THE SAME” (priority 2022, published 2026).

Key:
[1] = Pharmacokinetics of β-Gal formulations in C57BL/6 mice (Example 4); type: in vivo; settings: i.v.
Excerpt: FIG. 55 depicts time-dependent enzymatic activity of β-Gal in plasma delivered systemically in either saline (β-GalSaline) or extracted PFOc (β-GalExt. PFOc). Data shown as average±s.d. of n=5 technical replicates. Statistical significance determined using Student's t-test and represented as n.s.=not significant, * p<0.05.
To test whether PD-7 coating and PFOc dispersion influences the pharmacokinetic properties of formulated proteins, f-Gal formulations were intravenously administered to C57BL/6 mice and monitored time dependent serum bioavailability (FIG. 55). This experiment utilized a fluorescent conversion substrate to monitor the amount of functional protein in serum, thereby investigating changes to both bioavailability and bioactivity. Due to the large solution volumes administered (150 μL, ~15% of mouse blood volume), PFOc dispersed proteins were extracted into sterile saline before injection to avoid hyponatremia. Future applications in larger mammals would allow direct injection of the fluorous dispersion, without pre-extraction, due to the increased blood volumes and bio-inert nature of most perfluorocarbon solvents. […] However, variance in the data yielded statistical significance only at the t=0 hr and t=3 hr time points.

[2] = Temperature-dependent circular dichroism of proteins in PFOc or PBS (Example 4); type: physicochemical; settings: dispersed in PFOc using PD-7, heated up to 85 °C
Procedure: FIGS. 39A-39B depict temperature-dependent CD spectra of the indicated test protein solubilized in PFOc using the PD-7 dispersant, or PBS as a control.
FIG. 40 depicts the change in minimum CD ellipticity over the 40 °C-85 °C temperature interval for the indicated protein dissolved in either PBS or PFOc.
To determine structural integrity of proteins in aqueous and fluorinated environments at elevated temperatures, circular dichroism (CD) was used to probe secondary structure. Proteins were either diluted in PBS (aqueous) or dispersed in PFOc at the same designated concentrations according to protocol described above. For aqueous samples, dissolved proteins were heated between 40 °C to 90 °C, and their corresponding CD spectra at each temperature was measured. For PFOc samples, each of the PFOc dispersed proteins were subjected to heat treatment at 40, 55, 70, and 85 °C for 15 minutes. After that, dispersed proteins were eluted into PBS before having their CD spectra taken. Data is shown by representative ellipticity at each temperature depicted by distinct colors.

A549 cells [3] = assay: Protein uptake in A549 cells, Cy5-labeled BSA; type: cell-based, human; settings: PFNA
Procedure: FIGS. 18A-18B depict the uptake of Cy5-labeled BSA in human lung A549 cells after 2 and 24 hours of incubation in the absence/presence of PFNA. Results are shown in relative fluorescence units (RFU).
(§1) Multiplexed in vitro assays were employed to probe the influence of PFNA interactions on protein uptake and transport in cells. A549 and PC9 human lung cells were prioritized for these assays given that pulmonary tissue is a primary site of perfluoroalkyl bioaccumulation in humans (Reference: 63). Before initiating experiments, cellular toxicity assays established a maximum tolerated dose of PFNA to avoid confounding protein transport experiments with substantive cell death. Protein uptake was then studied using green fluorescent protein (GFP) and bovine serum albumin (BSACy5) as model biologics that employ non-specific pinocytic mechanisms for cellular entry.

eGFP-PC9 lung cells = assay: Imaging of eGFP-PC9 cells with PFNA; type: cell-based, human; settings: PFNA-treated cells
Procedure: FIG. 21 depicts confocal micrographs of eGFP-PC9 cells in the absence (top) and presence (bottom) of PFNA.
FIG. 22 depicts an analysis of average cellular fluorescence (in relative fluorescence units, RFU) for cells treated without/with PFNA for 1, 2 and 5 hours. Statistical significance was determined using unpaired t-test, with n.s.=not significant, * p<0.05, ** p<0.01 and *** p<0.001.
FIG. 23 depicts analysis of cellular fluorescent area (in relative area units, RAU) for cells treated without/with PFNA for 1, 2 and 5 hours. Statistical significance was determined using unpaired t-test, with n.s.=not significant, * p<0.05, ** p<0.01 and *** p<0.001.
Imaging studies were performed to interpret the effect of PFNA exposure on the transport of endogenous proteins in cells. For these experiments, stably transfected eGFP-PC9 lung cells were prepared to track the time dependent sub-cellular localization of eGFP as a model protein target (FIGS. 21, […]).

IgG = assay: Surface plasmon resonance, IgG; type: binding, rabbit; settings: after reference correction
Excerpt: FIGS. 14A-14L depict circular dichroism spectra of Hb (FIG. 14A), GFP (FIG. 14B), BSA (FIG. 14C), β-Gal (FIG. 14D), rabbit serum IgG (FIG. 14E), transferrin (FIG. 14F), and urease (FIG. 14G) in the absence (black line) or presence (dashed lines) of PFNA. Increasing dash sequence indicated higher concentration of PFNA. FIG. 14H: Change in molar ellipticity at 216 nm (Δθ216) of PFNA-treated proteins, relative to native controls, as a function of increasing ligand concentration. FIG. 14I: Percentage change in secondary structural motifs of Hb, β-Gal and IgG between the native protein and 1 mM PFNA treated samples. β-sheet structures were further differentiated into parallel and antiparallel conformations. Hb, β-Gal and IgG were prioritized for analysis based on their significant spectral shift in the presence of 1 mM PFNA. FIGS. 14J-14L: Sensograms for BSA (FIG. 14J), β-gal (FIG. 14K), and IgG (FIG. 14L) showing relative response (R.U.) at 10, 25, 50, 75, and 100 μM.
To test this assertion, PFNA binding to three exemplary proteins, BSA, β-Gal and IgG, was studied via isothermal titration calorimetry (ITC) and surface plasmon resonance (SPR) techniques. […] SPR analysis yielded similar results, with sensorgrams (FIGS. 14J-14L) that diverged from a simple 1:1 ligand-protein model. […]

A549 cells [4] = assay: Protein uptake in A549 cells, Texas Red-labeled Transferrin; type: cell-based, human; settings: PFNA, 24 hours of incubation
Procedure: FIGS. 19A-19B depicts the uptake of Texas Red-labeled Transferrin in human lung A549 cells after 2 and 24 hours of incubation in the absence/presence of PFNA. Results are shown in relative fluorescence units (RFU).
as §1

Row | Compound | serum half-life t1/2 ([1]; native β-Gal administered in saline) | serum half-life t1/2 ([1]; β-Gal from PFOc formulations, extracted into saline) | change in secondary structure [2] | BSA internalization (A549 cells [3]) | intracellular protein localization (eGFP-PC9 lung cells) | eGFP expression (eGFP-PC9 lung cells; particularly 1 hour) | SPR response (IgG) | increase in cellular fluorescence (Transferrin uptake) compared to native protein (A549 cells [4])
1 | β-Gal: β-Galactosidase (β-Gal), dissolved in PBS/saline or dispersed in PFOc | 7.2 min | 30 min | minimal changes in secondary structure | – | – | – | – | –
2 | O=C(O)C(F)(F)C(F)(F)C(F)(F)C(F)(F)C(F)(F)C(F)(F)C(F)(F)C(F)(F)F [Compound 7, perfluoronanonic acid] | – | – | – | less affected | remained relatively unchanged | significant reduction | negative responses | 43%
